# Measured values taken from patent publication US9499511B2, “N-substituted hydroxylamine derivatives with carbon-based leaving groups” (The Johns Hopkins University, priority 2011, dated 2016).
# Read-outs that look alike come from different tables or passages of the source.
# Tests used:
# [1] = pKa of carbanion byproduct (concentration of b / b-H+ as a function of pH, UV-Vis); format: physicochemical
# Source text: FIG. 2A and FIG. 2B show a graph plotting the concentration of 4b, 4b-H^+ (FIG. 2A) and 6b, 6b-H^+ (FIG. 2B) as a function of pH. In FIG. 2A, the squares represent 4b-H^+ (λmax=298 nm), and the circles represent carbanion 4b (λmax=261 nm). In FIG. 2B, the squares represent 6b-H^+ (λmax=270 nm), where the last three data points were omitted due to spectral overlap, and the circles represent carbanion 6b (λmax=253 nm).
# NMR spectra were obtained on a Bruker Avance 400 MHz FT-NMR spectrometer. All chemical shifts are reported in parts per million (ppm) relative to residual CHCl3 (7.26 ppm for ^1H, 77.23 ppm for ^13C), residual DMSO (2.50 ppm for ^1H, 39.52 for ^13C), or residual H2O (4.8 ppm for ^1H). High-resolution mass spectra were obtained on a VG Analytical VG70SE magnetic sector mass spectrometer operating in fast atom bombardment (FAB) mode. Ultraviolet-Visible (UV-Vis) absorption spectra were obtained using a Hewlett Packard 8453 diode array spectrometer. Phosphate-buffered saline (PBS) solutions (0.1 M) were prepared with 140 mM NaCl and 3 mM KCl, with 100 μM diethylenetriaminepentaacetic acid (DTPA), adjusted to pH 7.4. Buffered solutions (0.1 M) for UV-Vis experiments were prepared from HCl/NaCl (pH 1.7), AcOH/AcONa (pH 3.0, 3.5, 4.0, 4.5, 5.0, 5.5), or NaPO3H2/Na2PO3H (pH 6.0, 6.5, 7.0, 8.0, 9.0, 9.5, 9.8, 10.0, 10.5, 10.6).
# [2] = Decomposition kinetics monitored by UV-Vis spectroscopy; format: physicochemical
# Protocol: NMR spectra were obtained on a Bruker Avance 400 MHz FT-NMR spectrometer. […] High-resolution mass spectra were obtained on a VG Analytical VG70SE magnetic sector mass spectrometer operating in fast atom bombardment (FAB) mode. […] Phosphate-buffered saline (PBS) solutions (0.1 M) were prepared with 140 mM NaCl and 3 mM KCl, with 100 μM diethylenetriaminepentaacetic acid (DTPA), adjusted to pH 7.4.
# [3] = test system: Sprague-Dawley rats; assay: Acute cardiovascular effects, pressure-volume (PV) loop analysis in anesthetized rats; format: in vivo, rat; conditions: IV infusion 100 μg/kg/min, 5 rats
# Protocol: The acute cardiovascular effects of compounds 4a and 6a, when administered intravenously to Sprague-Dawley rats at an infusion rate of 100 μg/kg/min, were examined by means of pressure-volume (PV) curve (loops) analysis. PV families/relationships were generated via pre-load variation and hemodynamic indices were compared to baseline values. Each test article was administered to 5 rats.
# Rats were intraperitoneally (IP) anesthetized to effect with pentobarbital (˜50 mg/kg), shaved and positioned in dorsal recumbence, endotracheally intubated and ventilated […], ˜2.5 mL tidal volume with 95% O2/5% CO2) with an adjustable small animal ventilator (Harvard Apparatus). Anesthesia was maintained with a continuous pentobarbital infusion (to effect, ˜3 to 5 mg/kg/h, IV) until completion of the experiment via an indwelling catheter placed in a femoral vein. Subsequently, transthoracic needle electrodes forming a single-lead ECG were placed. For LV mechano-energetic evaluation, the right carotid artery was isolated, dissected free from the surrounding tissue, and cannulated with a 2F high-fidelity conductance/micromanometer catheter (Millar Instruments). This catheter was advanced retrograde across the aortic valve and into the LV chamber in order to simultaneously determine left-ventricular pressure and volume (via conductivity). […] Meanwhile, in order to record arterial pressures, a 2F high-fidelity micromanometer catheter (Millar Instruments) was inserted into a femoral artery and advanced towards the abdominal aorta. Finally, an in-dwelling catheter was placed into the jugular vein for administration of test article.
# Following collection of baseline hemodynamic data, infusion of test article was initiated at an infusion rate of 100 μg/kg/min; at 10 μL/min. Pressure-volume analyses were performed again approximately 30 min and 45 min after the initiation of the dose.
# The resulting left-ventricular pressure and volume data was analyzed offline (IOX/ECG Auto; EMKA Technologies) in order to generate relationships representing the contractile and energetic state of the myocardium. Systolic (SAP), diastolic (DAP), and mean (MAP) arterial pressures were collected. Left-ventricular mechanical and/or geometrical indices were obtained from the pressure (ESP, EDP, dP/dt max/min, time-constant of relaxation—tau [based on mono-exponential decay with non-zero asymptote]) and volume (ESV, EDV, SV) signal. In addition, the following measurements were derived from left-ventricular pressure-volume data (PV loops) generated during brief periods of preload reduction: • Pressure volume area (PVA) and stroke work (SW). • End-systolic (ESPVR) and end-diastolic (EDPVR) pressure volume relationships. • End systolic pressure and stroke volume relationship (Arterial Elastance, Ea).
# Data are presented as means with standard errors (mean±SEM) in Table 6.
# [4] = N2O headspace analysis (GC) of HNO production, relative to Angeli's salt; format: physicochemical
# Protocol: Nitrous oxide is produced via the dimerization and dehydration of HNO, and is the most common marker for HNO production (Fukuto, J. M. et al., Chem. Res. Toxicol. 2005, 18, 790-801).
# Gas chromatography was performed on a Varian CP-3800 instrument equipped with a 1041 manual injector, electron capture detector, and a 25 m 5 Å molecular sieve capillary column. Grade 5.0 nitrogen was used as both the carrier (8 mL/min) and the make-up (22 mL/min) gas. The injector oven and the detector oven were kept at 200° C. and 300° C., respectively. All nitrous oxide analyses were performed with the column oven held constant at 150° C. All gas injections were made using a 100 μL gastight syringe with a sample-lock. Samples were prepared in 15 mL amber headspace vials with volumes pre-measured for sample uniformity (actual vial volume ranges from 15.19-15.20 mL). Vials were charged with 5 mL of PBS buffer containing DTPA, purged with argon, and sealed with a rubber septum. The vials were equilibrated for at least 10 minutes at 37° C. in a dry block heater. A 10 mM stock solution of Angeli's salt (AS) was prepared in 10 mM sodium hydroxide, and HNO donors 1a-4a, 6a (10 mM) were prepared in acetonitrile or methanol and used immediately after preparation. From these stock solutions, 50 μL was introduced into individual thermally-equilibrated headspace vials using a gastight syringe, yielding final substrate concentrations of 0.1 mM. Substrates were then incubated long enough to ensure complete decomposition and equilibration of N2O with the headspace. The headspace (60 μL) was then sampled and injected five successive times using a gastight syringe with a sample lock. This was repeated for n≧3 vials per donor. The nitrous oxide yield was averaged and reported relative to the standard, Angeli's salt. For chemical trapping of HNO, glutathione (100 μL of 10 mM in PBS) was added prior to HNO donor addition to give a final glutathione concentration of 0.2 mM, and headspace sampling for N2O was analogously performed as stated above.
# [5] = Decomposition kinetics monitored by UV-Vis spectroscopy; format: physicochemical; conditions: PBS, pH 7.4, Condition A: pH 7.4, 37° C., 0.1M PBS, 100 μL DTPA, air (UV/Vis)
compound,measurement,setting,value
"5-(acetyl-O-methoxyoxime)-N,N-dimethylbarbituric acid [Compound 4b]",pKa of byproduct,[1],ca. 4.2
"CO/N=C(\C)C1(NO)C(=O)N(c2ccccc2)N=C1C (stereo not shown) [Compound 6a, 4-(N-hydroxylamine)-4-(acetyl-O-methoxyoxime)-N-phenyl-5-methyl-pyrazolone]",half-life,"[2]; AcOH/AcONa buffer, pH 4, pH 4.0, room temperature, read-out: half-life (converted)",~1500 min
same,half-life,"[2]; PBS, pH 7.4, footnote c not given, pH 7.4, 37° C., read-out: t1/2",9.5 min
same,half-life,"[2]; PBS, pH 7.4, pH 7.4 and 37° C., read-out: half-life (converted)",~10 min
same,pH near which the decomposition rate sharply increases,"[2]; decomposition rate as a function of pH at 25° C., UV-Vis",~10
same,Mean Blood Pressure,[3]; baseline 124 (4a) / 138 (6a),111 mmHg
same,Stroke Volume,"[3]; mean, baseline 1 (4a) / 2.2 (6a)",2.4 relative volume units
same,End Diastolic Pressure Volume Relationship,"[3]; mean, baseline 1.7 (4a) / 1.8 (6a)",1.5
same,End Diastolic Pressure,"[3]; mean, baseline 4.7 (4a) / 4.4 (6a)",3.6 mmHg
same,Tau,"[3]; mean, baseline 8.5 (4a) / 8.7 (6a)",8.6 ms
same,Arterial Elastance,"[3]; mean, baseline 9.2 (4a) / 7.4 (6a)",5.7
same,End Diastolic Volume,"[3]; mean, baseline 14.6 (4a) / 19.2 (6a)",20 relative volume units
same,End Systolic Pressure Volume Relationship,"[3]; mean, baseline 28.1 (4a) / 23.7 (6a)",31
same,Pre-Load Recruitable Stroke Work,"[3]; mean, baseline 37.6 (4a) / 42.8 (6a)",58.2
same,Diastolic Blood Pressure,"[3]; mean, baseline 109 (4a) / 121 (6a)",97 mmHg
same,Stroke Work,"[3]; mean, baseline 112 (4a) / 227 (6a)",185 relative volume units × mmHg
same,End Systolic Pressure,"[3]; mean, baseline 134 (4a) / 141 (6a)",113 mmHg
same,Systolic Blood Pressure,"[3]; mean, baseline 147 (4a) / 160 (6a)",130 mmHg
same,Pressure Volume Area,"[3]; mean, baseline 343 (4a) / 590 (6a)",318
same,Heart Rate,"[3]; mean, baseline 365 (4a) / 340 (6a)","332 bp, m"
same,Left Ventricular +dP/dt,"[3]; mean, baseline 6392 (4a) / 7689 (6a)",6044 mmHg/s
same,Left Ventricular −dP/dt,"[3]; mean, baseline −7585 (4a) / −8257 (6a)",−6549 mmHg/s
same,HNO / N2O production (in words),[4]; decomposition at pH 7.4,efficiently produces HNO
same,% HNO,"[4]; donor 0.1 mM, 37° C., PBS pH 7.4, yield relative to Angeli's salt by N2O headspace analysis, SEM ±5%, n = 3",110%
same,half-life,[5],9.5 min
